Measured values taken from ChEMBL document CHEMBL1201862, “PubChem BioAssay data set” (2004).
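48-hour exposure; five concentrations; linearly interpolated endpoints. At the GI50, growth is halved.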 Activity calls are given as the source filed them. Rule as the data show it: active = GI50 up to about 1.1 µM and inactive = higher.

Columns and labels:
Experiment in all cases: inhibition of tumour cell growth, NCI panel, 48 h
786-0 = tested on: 786-0
A498 = tested on: A498
A549 = tested on: A549
ACHN = tested on: ACHN
CAKI-1 = tested on: CAKI-1
CCRF-CEM = tested on: CCRF-CEM
COLO 205 = tested on: COLO 205
DLD-1 = tested on: DLD-1
DMS-114 = tested on: DMS-114
EKVX = tested on: EKVX
HCC 2998 = tested on: HCC 2998
HCT-116 = tested on: HCT-116
HL-60 = tested on: HL-60
HOP-62 = tested on: HOP-62
HOP-92 = tested on: HOP-92
HT-29 = tested on: HT-29
K562 = tested on: K562
KM-20L2 = tested on: KM-20L2
KM12 = tested on: KM12
LXFL 529 = tested on: LXFL 529
M14 = tested on: M14
M19-MEL = tested on: M19-MEL
MOLT-4 = tested on: MOLT-4
Malme-3M = tested on: Malme-3M
NCI-H226 = tested on: NCI-H226
NCI-H23 = tested on: NCI-H23
NCI-H460 = tested on: NCI-H460
NCI-H522 = tested on: NCI-H522
OVCAR-3 = tested on: OVCAR-3
OVCAR-4 = tested on: OVCAR-4
OVCAR-5 = tested on: OVCAR-5
OVCAR-8 = tested on: OVCAR-8
RPMI-8226 = tested on: RPMI-8226
SF-268 = tested on: SF-268
SF-295 = tested on: SF-295
SK-MEL-28 = tested on: SK-MEL-28
SK-MEL-2 = tested on: SK-MEL-2
SK-OV-3 = tested on: SK-OV-3
SN12C = tested on: SN12C
SNB-19 = tested on: SNB-19
SNB-75 = tested on: SNB-75
SNB-78 = tested on: SNB-78
SR = tested on: SR
SW-620 = tested on: SW-620
TK-10 = tested on: TK-10
U-251 = tested on: U-251
UACC-257 = tested on: UACC-257
UACC-62 = tested on: UACC-62
UO-31 = tested on: UO-31
XF498 = tested on: XF498

Measured: GI50

COc1cc2ccn3c4cc(OC)c(OC)cc4cc3c2cc1OC
inactive: 786-0 33.5 µM | A498 > 100 µM | A549 > 100 µM | ACHN > 100 µM | CAKI-1 29.6 µM | CCRF-CEM > 100 µM | COLO 205 > 100 µM | DLD-1 > 100 µM | DMS-114 50.6 µM | EKVX 98.2 µM | HCC 2998 > 100 µM | HCT-116 32.8 µM | HL-60 4.83 µM | HOP-62 > 100 µM | HOP-92 > 100 µM | HT-29 > 100 µM | K562 > 100 µM | KM-20L2 > 100 µM | KM12 > 100 µM | LXFL 529 78.7 µM | M14 63.1 µM | M19-MEL > 100 µM | MOLT-4 > 100 µM | Malme-3M > 100 µM | NCI-H226 > 100 µM | NCI-H23 > 100 µM | NCI-H460 > 100 µM | NCI-H522 11.3 µM | OVCAR-3 58.6 µM | OVCAR-4 > 100 µM | OVCAR-5 > 100 µM | OVCAR-8 > 100 µM | RPMI-8226 5.6 µM | SF-268 > 100 µM | SF-295 > 100 µM | SK-MEL-28 > 100 µM | SK-MEL-2 > 100 µM | SK-OV-3 > 100 µM | SN12C > 100 µM | SNB-19 > 100 µM | SNB-75 > 100 µM | SNB-78 > 100 µM | SR > 100 µM | SW-620 > 100 µM | TK-10 > 100 µM | U-251 > 100 µM | UACC-257 > 100 µM | UACC-62 > 100 µM | UO-31 > 100 µM | XF498 7.16 µM
